Columns and labels:
Goettingen minipigs = experiment: In vivo studies using Goettingen minipigs: depth of sedation score; conditions: Animal No 1; 10 min post dosing; IV, 2 mL of 5 mg/mL (10 mg)
[1] = In vivo studies using Goettingen minipigs: RMZ and CNS7054 plasma pharmacokinetics and bioavailability; conditions: IV, 10 mg
Protocol: In order to assess the pharmacokinetic profile and effect of buccally administered oromucosal delivery systems containing remimazolam besylate, in vivo experiments using Goettingen minipigs (female, about 3 months old, body weight was 7 kg at the start of the study) were conducted. Three minipigs were used. A single oromucosal delivery system of Examples 1c (foam) and 1d (hotmelt), prepared as described above, with a nominal amount of 20 mg remimazolam (formulated as 27.2 mg nominal remimazolam besylate), was used per animal (with the exception of animal No 3 in Phase 1, where only half of an oromucosal delivery system of each type was placed in each side). The oromucosal delivery system foam was cut into two pieces to fit on the buccal mucosa.
The dose was given by buccal administration (oromucosal delivery system; hotmelt and foam) or IV administration (10 mg remimazolam formulated as remimazolam besylate according to the treatment schedule shown in table 9. No less than 48 hours were allowed between dosing occasions to allow for proper wash-out. The treatment with the oromucosal delivery systems was performed as follows: • 1. The animals were anaesthetized by mask with isoflurane to obtain sufficient depth of anesthesia to facilitate the placement of the oromucosal delivery system without stressing the animals. The length and concentration of isoflurane anesthesia was similar in all animals. • 2. The oromucosal delivery system was placed on the buccal mucosa. A small amount of saline was applied to the mucosa to facilitate the dissolution process on a single occasion in Phase 1. • 3. The mouth of the minipigs was closed for 1-2 minutes and then opened to check for completely dissolved oromucosal delivery system. If the oromucosal delivery system was not dissolved further checks were performed with intervals of 1-2 minutes, as required. • 4. The isoflurane treatment was stopped as soon as the oromucosal delivery system was dissolved.
In order to evaluate the bioavailability, the animals also received a single intravenous (IV) dose. The IV dose volume was administered as a bolus over a period of approximately 1 minute.
The RMZ IV dose formulation was prepared in glass containers. To prepare said formulation of nominal 5 mg/mL (stock solution), a drug product vial (50 mg of RZM powder) was reconstituted with 10 mL of 0.9% w/v sodium chloride solution. The reconstituted solutions of RMZ were clear and colorless to slightly yellow. The reconstituted RMZ drug product was used within 24 hours.
After each dosing in phase 2-4, blood samples were taken from all animals. Blood samples were collected at 8 time points following application of the oromucosal delivery systems. Samples were collected at the following time points: pre-treatment, and 2, 5, 10, 20, 40, 60 and 90 minutes post-treatment.
RMZ concentrations and CNS7054 concentrations in minipig plasma were determined using a validated liquid-liquid extraction followed by LC-MS/MS. All samples, collected before treatment start, were measured to be below the limit of quantification (0.100 ng/mL).
Individual plasma concentrations are listed in Table 13 and are graphically depicted in FIGS. 3a to 5b. Additionally, basic pharmacokinetic parameters such as maximal plasma concentration (cmax), time to reaching it (tmax) and exposure defined as Area Under the Curve (AUC0-t) are summarized in Table 13 for each individual animal for both RMZ and CNS7054 and following IV administration or administration of either of the two oromucosal delivery system formulations.
For the evaluation of the bioavailability (BA), dose-normalized cmax (cmax/D) and dose-normalized AUC (AUC0-t/D) were determined for the two oromucosal delivery system formulations for RMZ and CNS7054.

COC(=O)CC[C@@H]1N=C(c2ccccn2)c2cc(Br)ccc2-n2c(C)cnc21.O=S(=O)(O)c1ccccc1 [RMZ, remimazolam besylate]
Sedation/anaesthesia score (Goettingen minipigs): ¾ | CNS7054 plasma concentration ([1]; Animal No 1, 1 min): 108 ng/mL | Remimazolam plasma concentration ([1]; Animal No 1, 1 min): 1032 ng/mL | CNS7054 plasma concentration ([1]; Animal No 1, 5 min): 224 ng/mL | Remimazolam plasma concentration ([1]; Animal No 1, 5 min): 767 ng/mL | CNS7054 plasma concentration ([1]; Animal No 1, 10 min): 283 ng/mL | Remimazolam plasma concentration ([1]; Animal No 1, 10 min): 389.5 ng/mL | CNS7054 plasma concentration ([1]; Animal No 1, 20 min): 423 ng/mL | Remimazolam plasma concentration ([1]; Animal No 1, 20 min): 285.5 ng/mL | CNS7054 plasma concentration ([1]; Animal No 1, 40 min): 406 ng/mL | Remimazolam plasma concentration ([1]; Animal No 1, 40 min): 149.3 ng/mL | CNS7054 plasma concentration ([1]; Animal No 1, 60 min): 329 ng/mL | Remimazolam plasma concentration ([1]; Animal No 1, 60 min): 76.1 ng/mL | CNS7054 plasma concentration ([1]; Animal No 1, 90 min): 302 ng/mL | Remimazolam plasma concentration ([1]; Animal No 1, 90 min): 40.6 ng/mL | CNS7054 AUC0-t ([1]; Animal No 1): 30508.5 ng·min/mL | CNS7054 cmax ([1]; Animal No 1): 423 ng/mL | CNS7054 tmax ([1]; Animal No 1): 20 min | Remimazolam AUC0-t ([1]; Animal No 1): 18349.25 ng·min/mL | Remimazolam cmax ([1]; Animal No 1): 1032 ng/mL | Remimazolam tmax ([1]; Animal No 1): 2 min | CNS7054 plasma concentration ([1]; Animal No 2, 1 min): 539 ng/mL | Remimazolam plasma concentration ([1]; Animal No 2, 1 min): 1244 ng/mL | CNS7054 plasma concentration ([1]; Animal No 2, 5 min): 707 ng/mL | Remimazolam plasma concentration ([1]; Animal No 2, 5 min): 432 ng/mL | CNS7054 plasma concentration ([1]; Animal No 2, 10 min): 851 ng/mL | Remimazolam plasma concentration ([1]; Animal No 2, 10 min): 469 ng/mL | CNS7054 plasma concentration ([1]; Animal No 2, 20 min): 783 ng/mL | Remimazolam plasma concentration ([1]; Animal No 2, 20 min): 208.8 ng/mL | CNS7054 plasma concentration ([1]; Animal No 2, 40 min): 508 ng/mL | Remimazolam plasma concentration ([1]; Animal No 2, 40 min): 52.6 ng/mL | CNS7054 plasma concentration ([1]; Animal No 2, 60 min): 267 ng/mL | CNS7054 plasma concentration ([1]; Animal No 2, 90 min): 170 ng/mL | CNS7054 AUC0-t ([1]; Animal No 2): 41688 ng·min/mL | CNS7054 cmax ([1]; Animal No 2): 851 ng/mL | CNS7054 tmax ([1]; Animal No 2): 10 min | Remimazolam AUC0-t ([1]; Animal No 2): 12539.5 ng·min/mL | Remimazolam cmax ([1]; Animal No 2): 1244 ng/mL | Remimazolam tmax ([1]; Animal No 2): 2 min | CNS7054 plasma concentration ([1]; Animal No 3, 1 min): 387 ng/mL | Remimazolam plasma concentration ([1]; Animal No 3, 1 min): 654 ng/mL | CNS7054 plasma concentration ([1]; Animal No 3, 5 min): 815 ng/mL | Remimazolam plasma concentration ([1]; Animal No 3, 5 min): 353.9 ng/mL | CNS7054 plasma concentration ([1]; Animal No 3, 10 min): 798 ng/mL | Remimazolam plasma concentration ([1]; Animal No 3, 10 min): 201 ng/mL | CNS7054 plasma concentration ([1]; Animal No 3, 20 min): 770 ng/mL | Remimazolam plasma concentration ([1]; Animal No 3, 20 min): 124.3 ng/mL | CNS7054 plasma concentration ([1]; Animal No 3, 40 min): 625 ng/mL | Remimazolam plasma concentration ([1]; Animal No 3, 40 min): 41.2 ng/mL | CNS7054 plasma concentration ([1]; Animal No 3, 60 min): 423 ng/mL | Remimazolam plasma concentration ([1]; Animal No 3, 60 min): 52.2 ng/mL | CNS7054 plasma concentration ([1]; Animal No 3, 90 min): 123 ng/mL | CNS7054 AUC0-t ([1]; Animal No 3): 46682.5 ng·min/mL | CNS7054 cmax ([1]; Animal No 3): 815 ng/mL | CNS7054 tmax ([1]; Animal No 3): 5 min | Remimazolam AUC0-t ([1]; Animal No 3): 8551.6 ng·min/mL | Remimazolam cmax ([1]; Animal No 3): 654 ng/mL | Remimazolam tmax ([1]; Animal No 3): 2 min

— patent US20260199368A1, “[…] SYSTEM CONTAINING REMIMAZOLAM” (LTS LOHMANN THERAPIE-SYSTEME AG, priority 2022, published 2026)
